{"source": "paper PMC6880192", "about": "“Structure–Effect Relationships of Novel Semi-Synthetic Cannabinoid Derivatives” (Frontiers in Pharmacology, 2019)", "key": {"CB1-/CB2-receptors": {"system": "CB1-/CB2-receptors", "set-up": "method as in Rosenthaler et al. 2014", "conditions": "ref Rosenthaler et al. 2014; cited from earlier work"}, "CB2-receptor [1]": {"target": "T1, CB2-receptor (Homo sapiens, UniProt P34972)", "T1 construct": "expressed in transfected cells; host or cells: CHO cells, stably transfected with CB2 cDNA (from IMIBIC) and transiently with CRE-luc", "T1 sequence (P34972 whole entry)": "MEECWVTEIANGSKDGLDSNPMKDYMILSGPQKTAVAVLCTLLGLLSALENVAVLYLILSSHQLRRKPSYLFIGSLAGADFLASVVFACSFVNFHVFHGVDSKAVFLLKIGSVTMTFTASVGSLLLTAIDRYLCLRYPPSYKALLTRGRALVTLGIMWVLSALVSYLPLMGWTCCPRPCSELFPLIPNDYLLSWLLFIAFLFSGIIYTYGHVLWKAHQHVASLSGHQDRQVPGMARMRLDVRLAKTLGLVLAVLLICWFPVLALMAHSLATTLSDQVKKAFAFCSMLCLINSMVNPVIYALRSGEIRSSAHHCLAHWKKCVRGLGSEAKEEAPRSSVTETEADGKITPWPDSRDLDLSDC", "assay": "Competition binding against [3H]-CP55940, CB2 membranes", "conditions": "ratio of Ki values"}, "CB1-receptor": {"target": "T2, CB1-receptor (Homo sapiens, UniProt P21554)", "T2 construct": "expressed in transfected cells; host or cells: CHO cells, stably transfected with CB1 cDNA (from IMIBIC) and transiently with CRE-luc", "T2 sequence (P21554 whole entry)": "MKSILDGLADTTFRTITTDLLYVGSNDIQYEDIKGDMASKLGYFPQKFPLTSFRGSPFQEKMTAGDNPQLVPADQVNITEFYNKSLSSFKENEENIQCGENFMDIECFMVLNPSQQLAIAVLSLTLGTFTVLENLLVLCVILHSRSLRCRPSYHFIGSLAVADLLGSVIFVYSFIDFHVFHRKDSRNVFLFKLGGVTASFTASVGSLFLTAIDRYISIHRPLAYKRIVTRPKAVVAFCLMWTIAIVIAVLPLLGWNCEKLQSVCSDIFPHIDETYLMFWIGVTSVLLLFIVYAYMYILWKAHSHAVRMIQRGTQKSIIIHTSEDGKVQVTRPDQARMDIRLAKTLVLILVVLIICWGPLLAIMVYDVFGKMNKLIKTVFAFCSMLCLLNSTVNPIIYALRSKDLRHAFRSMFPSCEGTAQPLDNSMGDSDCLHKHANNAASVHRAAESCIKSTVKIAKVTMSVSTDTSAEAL", "assay": "cAMP-dependent luciferase assay in CHO-CB1-CRE-luc cells", "type": "cell-based", "conditions": "CHO-CB1-CRE-luc, summary classification", "method": "(§1) Briefly, CHO cells were stably transfected with CB1- and CB2-receptor complementary DNAs (cDNAs) (kindly provided by IMIBIC). Around 10^5 transfected cells per milliliter were seeded in 24-well plates and transiently transfected with the plasmid CRE-luc using Roti-Fect (Carl Roth, Karlsruhe) following the manufacturer’s instructions. The cells were harvested after 24 h. Two transfected cell types resulted: CHO-CB1-CRE-luc and CHO-CB2-CRE-luc.\n(§2) To test for agonistic activity at the CB1-receptor, the CHO-CB1-CRE-luc cells were stimulated for 6 h with increasing concentrations of the test compounds ([Bouaboula et al. 1997]). Forskolin (FSK), a strong CB-receptor-independent activator of adenylyl-cyclase was used at 10 µmol/L as a positive control. To investigate the antagonistic activity, the CHO-CB1-CRE-luc cells were pre-incubated for 15 min with the test compounds before stimulation for 6 h with 1 µmol/L WIN ([Zheng et al. 2013]). To investigate CB2-receptor agonistic activity, CHO-CB2-CRE-luc cells were pre-incubated for 15 min with increasing concentrations of the test substances and then for 6 h with 10 µmol/L FSK. WIN, a non-specific agonist at CB2-receptors, was used as a positive control. To confirm CB2-receptor agonistic activities of the test compounds, CHO-CB2-CRE-luc cells were pre-incubated with the specific CB2-receptor antagonist AM630 (1 µmol/L, 6-iodopravadoline; Cayman, distributed by Biozol, Hamburg) ([Ross et al. 1999]; [Zheng et al. 2013]) and then treated with increasing concentrations of the test substances.\n(§3) After the stimulations and incubations, cells were lysed in a solution of 25 mmol Tris-phosphate (pH = 7.8), 8 mmol MgCl2, 1 mmol dithiothreitol (DTT), 1% Triton X-100, and 7% glycerol. The luciferase activity was measured with a Luciferase Assay Kit (Promega, Madison) according to the manufacturer’s instructions using an AutoLumat LB 9501 (Berthold Technologies, Bad Wildbad)."}, "CB2-receptor [2]": {"target": "T1, CB2-receptor", "assay": "cAMP-dependent luciferase assay in CHO-CB2-CRE-luc cells", "type": "cell-based", "method": "as §1, §2, §3"}, "NFAT": {"system": "NFAT", "assay": "PMA/IO-induced NFAT-luc activation in Jurkat T-cells", "type": "cell-based", "conditions": "0.5–25 µmol/L", "method": "Jurkat T-cells (10^6 cells per milliliter) were transiently transfected with plasmids that contained an NF-κB-dependent (KBF-luc) or NFAT-dependent (NFAT-luc) promotors fused to the luciferase gene using Lipofectin (Life Technologies, Carlsbad) according to the manufacturer’s instructions ([Yano et al. 1987]; [Durand et al. 1988]). Twenty-four hours after transfection, cells were stimulated for 30 min with increasing doses of the test compounds or WIN as a control (Tocris, Bristol). Then PMA (50 ng/ml)—for NFAT-luc—plus ionomycin (0.5 µg/ml) (Sigma-Aldrich, St. Louis) was added, followed by a 6 h incubation period.\nas §3"}, "primary human monocytes": {"system": "primary human monocytes", "assay": "Anti-inflammatory effect on LPS-treated monocytes (ELISA)", "type": "cell-based", "conditions": "LPS 10 ng/ml, 24 h", "method": "Human peripheral blood monocytes were prepared from healthy donors who provided written informed consent at the local blood bank (University Hospital of Freiburg, Germany). Mononuclear cells were isolated by density gradient centrifugation according to standard protocol ([English and Andersen, 1974]) using lymphocyte separation medium, (PAN Biotech, Aidenbach). Cells were resuspended in RPMI-1640 medium (Invitrogen/Thermo Fisher Scientific, Karlsruhe) containing 10% human serum (Hexacell, Berlin). About 5 × 10^5 cells per milliliter were seeded in 24-well plates and incubated at 37°C and 5% CO2. The medium and the non-adherent cells were removed by washing with PBS and fresh RPMI medium, and 1% human serum was added to each well.\nTo test the anti-inflammatory effect of the test compounds, monocytes were incubated for 30 min with increasing doses of the test compounds. Then lipopolysaccharide (LPS) (10 ng/ml; Escherichia coli, Sigma-Aldrich, St. Louis) was added followed by a 24 h incubation period. The supernatants were removed and the levels of IL-1β, IL-6, IL-8, TNF-α, and prostaglandin E2 (PGE2) determined by enzyme-linked immunosorbent assay (ELISA) performed according to the manufacturer’s instructions (IL-1β from Hiss, Freiburg; IL-6, IL-8, and TNF-α from ImmunoTools, Friesoythe; and PGE2 from Cayman, distributed by Biozol, Hamburg). Stimulation with LPS alone was considered 100%."}, "RAW264.7 macrophages": {"system": "RAW264.7 macrophages", "assay": "MTT cytotoxicity assay", "type": "cell-based", "conditions": "RAW264.7, concentrations of 5 and 10 µmol/L", "description": "Cytotoxicity tests were done on CHO cells, Jurkat T-cells, or RAW264.7 macrophages using the MTT assay (Sigma-Aldrich, St. Louis) and on primary human monocytes with the alamarBlue assay (Thermo Fisher Scientific, Karlsruhe)."}}}
{"smiles": "C=C(C)[C@@H]1CCC(C)=C[C@H]1c1c(O)cc(CCCCC)cc1O", "note": "[CBD, (-)-trans-cannabidiol]", "values": [{"measurement": "Affinity for CB1-/CB2-receptors", "setting": "CB1-/CB2-receptors", "value": "poor affinity"}]}
{"smiles": "C=C(C)[C@@H]1CCC(C)=C[C@H]1c1c(O)cc(CCC)cc1O", "note": "[CBDV, (-)-trans-cannabidivarin]", "values": [{"measurement": "Affinity for CB1-/CB2-receptors", "setting": "CB1-/CB2-receptors", "value": "poor affinity"}]}
{"smiles": "C=C(C)[C@@H]1CCC(C)=C[C@H]1c1c(O)cc(CCCCC)c(C(=O)OCC(O)CO)c1O", "note": "(stereo partly drawn) [GCBD (3), 2,3-dihydroxypropyl cannabidiolate]", "values": [{"measurement": "Selectivity CB2/CB1", "setting": "CB2-receptor [1]", "value": 7.8}, {"measurement": "Effect on CB1", "setting": "CB1-receptor", "value": "Antagonist"}, {"measurement": "CB2-receptor agonistic activity (fold induction of CRE-luc)", "setting": "CB2-receptor [2]; 15 min pre-incubation, then 10 µmol/L FSK for 6 h", "value": "dose-dependent agonistic effects"}, {"measurement": "Effect on CB2", "setting": "CB2-receptor [2]; CHO-CB2-CRE-luc, summary classification", "value": "Agonist"}, {"measurement": "Inhibition of PMA/IO-induced NFAT activation", "setting": "NFAT", "value": "significantly inhibited"}, {"measurement": "LPS-induced IL-1β release", "setting": "primary human monocytes", "value": "significantly inhibited"}, {"measurement": "LPS-induced IL-6 release", "setting": "primary human monocytes", "value": "significantly inhibited"}, {"measurement": "LPS-induced IL-8 release", "setting": "primary human monocytes", "value": "costimulated"}, {"measurement": "LPS-induced TNF-α release", "setting": "primary human monocytes", "value": "significantly inhibited"}, {"measurement": "Effect on cell viability", "setting": "RAW264.7 macrophages", "value": "negative effect on cell viability"}]}
